Reference: patent publication US20090023645A1, “AIB1, a novel steroid receptor co-activator” (The Government of the United States of America as …, priority 1997, published 2009)

Key:
ER = assay: transient transfection ER reporter (luciferase) transcription assay in COS-1 cells; type: cell-based; settings: 100 nM 4-hydroxytamoxifen in place of 17β-estradiol
Protocol: COS-1 cells were transiently transfected with 250 ng ER expression vector (pHEGO-hyg), 10 ng of luciferase reporter plasmid (pGL3.luc.3ERE or 10 ng pGL3 lacking ERE) and increasing amounts of pcDNA3.1-AIB1 and incubated in the absence (open bars) or presence of 10 nM 17β-stradiol (E2, solid bars) or 100 nM 4-hydroxytamoxifen (hatched bars). Luciferase activity was expressed in relative luminescence units (RLU). The data are the mean of three determinations from one of four replicate experiments. Error bars indicate one standard deviation.
To determine whether expression of AIB1 increases ER ligand-dependent transactivation, transient transfection assays were performed. The effect of increasing levels of AIB1 on transcription of an ER dependent reporter was measured. […] This effect was not observed when the estrogen antagonist, 4-hydroxytamoxifen (4-OHT), was substituted for 17β-estradiol or when the estrogen response element (ERE) was removed from the reporter plasmid (FIG. 3).
To determine the effect of AIB1 on estrogen-dependent transcription, an ER reporter plasmid can be used. […] Reporter activities were determined using the Dual-Luciferase Reporter Assay System (Promega) and the results expressed in relative luminescence units (RLU; luciferase/Renilla luciferase). pRL-CMV and pGL3-promoter were obtained from Promega. pHEGO-hyg was obtained from ATCC. […]

recurrent breast cancer = assay: response to tamoxifen therapy in patients with recurrent breast cancer and ER-positive primary tumors; type: in vivo
Protocol: Loss of estrogen receptor in recurrent breast caner is also associated with poor response to endocrine therapy. […] The frequency of hormone receptor status changes between primary and recurrent tumors and whether such a change might explain unresponsiveness to endocrine therapy was examined. Primary breast cancer samples and matched asynchronous recurrences were studied from 50 patients who had not received any adjuvant therapy. ER and progesterone receptor (PR) status was determined immunohistochemically from histologically representative formalin-fixed paraffin-embedded tumor samples. ER status was ascertained by mRNA in situ hybridization. Thirty-five (70%) of 50 primary tumors were positive for ER and 30 (60%) for PR. Hormone receptor status of the recurrent tumor differed from that of the primary tumor in 18 cases (36%). Discordant cases were due to the loss of ER (n=6), loss of PR (n=6), or loss of both receptors (n=6). Receptor-negative primary tumors were always accompanied by receptor-negative recurrences. Among 27 patients with ER-positive primary tumors, loss of ER was a significant predictor (P=0.0085) of poor response to subsequent endocrine therapy. […] Loss of ER expression in recurrent breast cancer predicts poor response to endocrine therapy in primarily ER-positive patients.

metastatic tumor = assay: tamoxifen treatment of a patient whose metastatic breast tumor showed high AIB1 copy number; type: in vivo; settings: one post-menopausal patient, ER/PR positive metastatic tumor with high AIB1 copy number

## 4-hydroxytamoxifen
ER
  AIB1 dose dependent increase in transcription when the ligand is substituted for 17β-estradiol: not observed

## CC/C(=C(\c1ccccc1)c1ccc(OCCN(C)C)cc1)c1ccccc1 [tamoxifen]
Recurrent breast cancer; patients whose recurrent tumors retained ER expression (14 of 19)
  response rate to tamoxifen therapy: 74%
Recurrent breast cancer; patients with lost ER expression in the recurrent tumor (one of eight)
  response rate to tamoxifen therapy: 12.5%
Metastatic tumor
  patient response to tamoxifen treatment: responded favorably
